The experiment has as its system tumor that expresses high levels of CXCL12. The experiment in a line: Tumor growth in mice with a subcutaneous CXCL12-expressing tumor, AMD3100 followed by cisplatin. It counts as in vivo. As to the method:
Mice are injected with tumor cells (subcutaneous injection) from a tumor that expresses high levels of CXCL12 and a tumor allowed to develop. Once the tumor has formed, the mice are injected (subcutaneous in the same flank as the tumor) with AMD3100 or vehicle, once a day for 5 days.
One to three days after the final dose of AMD3100, mice are injected via intraperitoneal injection with a therapeutically effective amount of cisplatin 18 hours prior to assay of tumor growth.

Each structure is given as a SMILES string.

On to `c1cc(CN2CCCNCCNCCCNCC2)ccc1CN1CCCNCCNCCCNCC1` [AMD3100], for which the “Delay in tumor growth, co-treatment versus cisplatin alone” value (AMD3100 subcutaneous once a day for 5 days, then cisplatin intraperitoneal one to three days after the final dose) was “synergistic effect”.

As to `N.N.[Cl][Pt][Cl]` [cisplatin], the Tumor growth entry (cisplatin intraperitoneal 18 hours prior to assay, growth resumes soon after treatment is discontinued in mice not administered AMD3100) was “delayed”.

Values taken from patent US20180117005A1, “COMPOSITIONS FOR THE TREATMENT OF CANCER” (THE GENERAL HOSPITAL CORPORATION, priority 2015, published 2018).
